Source: patent publication US10799593B2, “Nanodiamond particle complexes” (priority 2008, dated 2020)

Tests used:
RAW 264.7 macrophages = test: Electrophoretic DNA fragmentation assay on Parylene A substrates; format: cell-based, murine
Source text: Substrate Preparation. Plain glass slides were sterilized in 70% ethanol and pre-treated with A-174 Silane (SCS COATINGS, Indianapolis, Ind.) adhesion promoter according to manufacturer's protocol. Approximately 20 grams of Parylene A (UNIGLOBE KISCO, White Plains, N.Y.) was loaded into a Parylene deposition system (PDS) 2010 LABCOTER® 2 (SCS COATINGS.) The deposition took place under previously indicated conditions (Kramer et al. 1984, 22, 475, Yang et al. Journal of Crystal Growth 1998, 183, 385, herein incorporated by reference in their entireties). Application of drug to the base layer of Parylene A was accomplished via desiccation of 100 μg dexmnethasone (SIGMA ALDRICH, St Louis, Mo.), or 25 μg doxorubicin (U.S. PHARMACOPIA, Rockville, Md.) under a laminar flow hood. A second layer of 150 mg of Parylene A was deposited over the drug films to produce the eluting layer.
Cell Culture Conditions. Macrophage cell line RAW 264.7 (AICC Manassas, Va.) cells were grown in DMEM media ([…] Inc, Hemdon, Va.) supplemented with 10% FBS (AICC) and 1% Penicillin/Streptomycin (LONZA, Walkersville, Md.). Investigation of inflammation pathways utilized lipo-polysacchmide 5 ng/ml (SIGMA ALDRICH) and resultant expression of IL-6 and TNF-α genes. Analysis of cellular apoptosis was accomplished using agarose electrophoresis of DNA fragmentation.
Electrophoretic Assay. […]

[1] = Spectroscopic analysis of DOX elution from Parylene A bi-layer; format: physicochemical; conditions: PBS
Protocol: Spectroscopy Analysis. […] Samples were placed in a 12 well plate immersed in 1.0 ml of PBS for 10 min, 20 min, 40 min, 1 hour, 4 hour, and 24 hour increments. After each time point the solution was removed and the drug eluting glass disks were transferred to a vacant well and replenished with […] of PBS. Remaining solutions were analyzed in a DU Series 700 UV-Vis Scanning Spectrophotometer (BECKMAN COULTER, Fullerton, Calif.).

[2] = tested on: RAW 264.7 murine macrophages; test: DNA fragmentation assay on DOX-ND Parylene C devices; format: cell-based; conditions: 16 and 20 hours, DOX positive control 2.5 μg/mL
Protocol: Materials and Device Fabrication. A conformal 3 g base layer of Parylene C was deposited on pre-cut 2.5 cm×2.5 cm glass slides with a […] COATING SYSTEMS (SCS) PDS 2010 LABCOATER (SCS, Indianapolis, Ind.). The Parylene layer was oxidized via oxygen plasma treatment in a HARRICK Plasma Cleaner/Sterilizer (Ithaca, N.Y.) at 100 W for one minute. A DOX-ND solution was then added to the base layer so that the final DOX-ND concentration in solution was 6.6 μg/ml. Subsequently, solvent evaporation occurred in isolation at room temperature. Following DOX-ND deposition, an ultra-thin 0.15 g palylene C layer was deposited as an elution-limiting and control element. The final layer of Parylene C was treated with oxygen plasma at 100 W for one minute. Parylene C was pyrolized into a gaseous monomer at 690° C., and deposited at room temperature under vacuum conditions for all depositions. The preceding parameters apply to devices fabricated for spectroscopy studies. The present invention is not limited to these parameters. The concentration of DOX-ND was adjusted for devices used in the DNA fragmentation assay so that the final DOX-ND concentration in solution was 33 μg/ml.
DNA Fragmentation Assay. […]

[3] = PBS compared with water; Pierstorff et al. 2008; cited from earlier work

release of DOX, additive spectroscopic scans ([1]; control: DOX applied to a base layer of Parylene A): complete release of DOX
release of DOX, additive spectroscopic scans ([1]; pinhole sample: DOX between Parylene A layers): gradual release of DOX
SMILES: COc1cccc2c1C(=O)c1c(O)c3c(c(O)c1C2=O)C[C@@](O)(C(=O)CO)C[C@@H]3O[C@H]1C[C@H](N)[C@H](O)[C@H](C)O1 [DOX, doxorubicin]
DNA fragmentation (apoptosis), electrophoretic gel (RAW 264.7 macrophages): fragmentation of DNA indicative of cells actively undergoing apoptosis
DNA fragmentation / onset of apoptosis [2]: rigorous DNA fragmentation
solubility [3]: less soluble in PBS
